Source: patent publication EP0906096B1, “USE OF HYDROXYPROLINES FOR THE MANUFACTURE OF A MEDICAMENT FOR INHIBITING LEUKOCYTE INVASION OF TISSUES” (Chephasaar Chem.-Pharm. Fabrik GmbH, priority 1996, dated 1997)

How the values were obtained:
Granulozyten [1] = assay: Adhesion of granulocytes to an endothelial layer (method of Hahne et al. 1993); type: cell-based
Source text: Gemäß M. Hahne et al. (1993), J. Cell. Biol. 121, 655-664 wurde die IC50-Konzentration von Hydroxyprolinderivaten, die zu einer 50 %igen Reduktion der Adhäsion von Granulozyten an einer Endothelschicht führte, bestimmt. Als besonders wirksam zeigte sich die an R2 acetylierte Verbindung.

[2] = system: eosinophiles Lungeninfiltrat; assay: Acute allergic inflammation: protein-induced eosinophilic lung infiltrate in sensitised guinea pigs; type: in vivo, Meerschweinchen
Source text: In Modellen der akuten allergischen Entzündung, wie z.

[3] = system: Lymphozyten und Monozyten; assay: Ex vivo adhesion of volunteers' lymphocytes and monocytes after oral intake; type: in vivo, Menschen; details: 400 - 800 mg
Blutplättchen = assay: Ex vivo platelet function after oral intake; type: in vivo; details: volunteers, 400 - 800 mg
Granulozyten [4] = assay: Ex vivo adhesion of volunteers' granulocytes to endothelia after oral intake; type: in vivo, Menschen
Source text: Gesunde Probanden erhielten eine einmalige Dosis von N-Acetylhydroxyprolin zum Zeitpunkt 0. Unmittelbar vorher und zu den genannten Zeitpunkten wurde Blut abgenommen und die Leukozyten mit Hilfe der Lymphoprep-Separation (Histoprep, Biologische Arbeitsgemeinschaft GmbH, Lich, Germany) präpariert. Die Adhäsion wurde wie in M. Hahne et al. (1993), J . Cell Biol. 121, 655 - 664 beschrieben bestimmt. Die durch LPS-Stimulation erhöhte Adhäsion ist evident (⌀ im Vergieich zu LPS, Zeitpunkt ⌀).

[5] = system: ischämisch traumatisiertes Gefäßendothel; assay: Post-ischaemia model (Nolte et al. 1995), leukocyte adherence in postcapillary venules; type: in vivo, Hamster; details: 50 mg/kg given 10 min before reperfusion; effect present after 0,5 and 2 hours; in all animals
Method: In dem von Nolte et al., Int. J. Microcirc. 15 (suppl 1) (1995), 9 - 16 beschriebenen Postischämiemodell beim Hamster zeigte sich, dass N-Acetylhydroxyprolin (Oxazeprol) bei Dosierungen von 50 mg/kg kurz yor Reperfusion (10 min) gegeben, die Adhäsion der Leukozyten am ischämisch traumatisierten Gefäßendothel um ca. 50 % reduzierte. Dieser Effekt war nach 0,5 und 2 Stunden vorhanden (Abb. 3). Er trat in allen untersuchten Tieren auf. Oxazeprol verhielt sich damit ähnlich wie Buflomidil (ein PDE4-Hemmer), Iloprostol (ein PhI-Analog) und monoklonale Antikörper gegen Selektine, d.h. N-Acetylhydroxyprolin verhinderte spezifisch die im Gefolge einer Noxe (Ischämie) auftretende Leukozytenadhäsion und -invasion ins Gewebe.

[6] = system: Carrageenin-Pfotenödem, Adjuvansarthritis, Baumwollgranulom; assay: Standard inflammation models (carrageenan paw oedema, adjuvant arthritis, cotton granuloma), histology; type: in vivo; details: short-term and long-term application; histological work-up
[7] = ex vivo, volunteers, single or repeated intake of 400 - 800 mg

## CC(=O)N1C[C@H](O)C[C@H]1C(=O)O [N-Acetylhydroxyprolin, N-Acetyl-L-hydroxyprolin]
Granulozyten [1]; concentration at which inhibition of granulocyte adhesion is still measurable, unit not given
  noch meßbar bei: 10^-9
Granulozyten [1]; concentration giving 50 % reduction of granulocyte adhesion to an endothelial layer, unit inferred
  IC50: ~100 nM
[2]; late phase
  Einwanderung von Granulozyten: signifikant reduziert
[2]; sensitised guinea pig, protein-induced
  Einwanderung der eosinophilen Granulozyten: keinen meßbaren Effekt
[3]
  Effekte auf Lymphozyten und Monozytenadhäsion: verschwanden hingegen nach wenigen Stunden
Blutplättchen
  Funktion der Blutplättchen: nicht tangiert
Granulozyten [4]; [7]
  Adhäsion der Granulozyten an Endothelien: reduzierte Adhäsion
  Dauer des Effekts auf die Granulozytenadhäsion: 24 - 48 Stunden
Granulozyten [4]; healthy volunteers, single dose at time 0, after 24 hours (Abb. 2)
  durch LPS-Stimulation erhöhte Adhäsion: weitgehend durch N-Acetylhydroxyprolin gehemmt
[5]
  Reduktion der Adhäsion der Leukozyten am ischämisch traumatisierten Gefäßendothel: ca. 50%
[6]
  Invasion der Granulozyten: deutliche reduzierte Invasion
  Invasion von monozytären Leukozyten: kaum verändert
